Square brackets hold non-standard residues; d marks the D form. Ends that are not written are not given here.
What was measured:
human GPR54 [1] = target: T1, human GPR54 (Homo sapiens, UniProt Q969F8); experiment: Flow cytometric calcium flux assay, response to peptide alone (agonist / intrinsic activity); assay type: cell-based; set-up: host or cells: rat hematopoietic CHEM1 cells expressing endogenous Galpha15
Method: In vitro analyses of the effects of kisspeptin and kisspeptin antagonists, were performed using HT[…] cells (rat hematopoietic CHEM1 cells expressing endogenous Gα15 and, stably expressing the human GPR54 receptor (Millipore BV, the Netherlands), CHEM1-GPR54. Cells were counted and suspended in HBSS+++ at a concentration of 5*10^6 cells/ml. To load the cells with the fluorescent dye ester they were incubated in HBSS+++ adjusted to a concentration of 2 μM Fluo-3 AM (Molecular Probes, Life Technologies, the Netherlands) for 1h at 37°C under agitation in the dark. After incubation, the cells were washed by adding HBSS+++ to a volume of 10 ml followed by centrifugation (5 min, 150 x g) to remove excess of Fluo-3AM. […] Thereafter the tube was removed briefly and 25 μl peptide (see below) was added, after which aspiration and analysis continued. For statistical analyses fluorescent data recorded during the time interval 30-60 seconds after initiation of measurement were used. […] Experiments were performed 3 times. Representative flow cytometry results are depicted in Fig 1. […] We then assessed whether these antagonists could compete with KP10 for its receptor. […] For this purpose 25 μl quantities of the antagonists were added to 200 μl of Fluo-3 AM labelled cells (10^6 cells/ml) and incubated for 15 min. […] Peptides p354 and p356 were tested three times with both human and canine KP10; while peptides p234 and p271 were tested three times with human KP10 and once with canine KP10. […] A multivariate general linear model was set up to analyze differences in calcium response between the different concentrations, with Dunnett's test as a post hoc procedure for the antagonists and Bonferroni's test for the agonists.

human GPR54 [2] = target: T1, human GPR54; experiment: Flow cytometric calcium flux assay, KP10-induced response after 15 min pre-incubation with antagonist; assay type: cell-based; set-up: host or cells: rat hematopoietic CHEM1 cells expressing endogenous Galpha15; settings: 10^-5 M; 10^-8 M KP10; P<0.001; ascribed to intrinsic response, not antagonism
Method: In vitro analyses of the effects of kisspeptin and kisspeptin antagonists, were performed using HT[…] cells (rat hematopoietic CHEM1 cells expressing endogenous Gα15 and, stably expressing the human GPR54 receptor (Millipore BV, the Netherlands), CHEM1-GPR54. Cells were counted and suspended in HBSS+++ at a concentration of 5*10^6 cells/ml. To load the cells with the fluorescent dye ester they were incubated in HBSS+++ adjusted to a concentration of 2 μM Fluo-3 AM (Molecular Probes, Life Technologies, the Netherlands) for 1h at 37°C under agitation in the dark. After incubation, the cells were washed by adding HBSS+++ to a volume of 10 ml followed by centrifugation (5 min, 150 x g) to remove excess of Fluo-3AM. […] Thereafter the tube was removed briefly and 25 μl peptide (see below) was added, after which aspiration and analysis continued. For statistical analyses fluorescent data recorded during the time interval 30-60 seconds after initiation of measurement were used. […] We then assessed whether these antagonists could compete with KP10 for its receptor. […] For this purpose 25 μl quantities of the antagonists were added to 200 μl of Fluo-3 AM labelled cells (10^6 cells/ml) and incubated for 15 min. […] Peptides p354 and p356 were tested three times with both human and canine KP10; while peptides p234 and p271 were tested three times with human KP10 and once with canine KP10. To analyze the effects of different concentrations of the KP antagonists on the calcium response due to KP10 addition, the differences in fluorescence before and after KP10 were calculated (the calcium response). The calcium response ratios were calculated as the calcium response of the CHEM1-GPR54 cells pre-incubated with different concentrations of KP antagonist and the control (the calcium response of the cells without KP antagonist). These calcium response ratios were log transformed and used for further analysis by univariate analysis of variance, with the Dunnett's test as post hoc test. The calcium response ratios were set as dependent variables and the different concentrations of the antagonists and the two types of KP10 were used as fixed factors. The residuals were normally distributed.

kisspeptin receptor = settings: ref unpublished data; cited from earlier work
Method: The following peptides were tested for antagonistic properties on the kisspeptin receptor: p234 ((D-Ala)-Asn-Trp-Asn-Gly-Phe-Gly-(D-Trp)-Arg-Phe-NH2), p271 (Arg-Arg-Met-Lys-Trp-Lys-Lys-Tyr-(D-Ala)-Asn-Trp-Asn-Gly-Phe-Gly-(D-Trp)-Arg-Phe-NH2), p354 ((D-Ala)-Tyr-Asn-Phe-Asn-Gly-Phe-Gly-(D-Trp)-Arg-Phe-NH2), and p356 ((D-Ala)-Tyr-Asn-Trp-Asn-Gly-Phe-Gly-(D-Trp)-Lys-Phe-NH2). Peptide 354 and p356 are next generation analogs refining p234.

plasma LH concentration = experiment: Plasma LH in anestrous Beagle bitches during antagonist infusion and after cKP10 bolus; assay type: in vivo, dog; settings: n = 6
Description: Thirteen adult anestrous Beagle bitches were used for this study. Six dogs with a median age of 89 months (range 43–122 months) were used as control group, receiving cKP10 without an antagonist. Eight dogs with a median age of 52 months (range 31–116 months) were used for the antagonist experiments. One dog was first used in the control group and 12 months later for the antagonist experiments. Of the eight dogs used for the antagonist experiments, four received p271, p354, and p356. In two of the eight dogs both p354 and p356 were tested, while in the remaining two dogs only p271 was tested, in order to test every antagonist in 6 dogs. The time between testing of different kisspeptin antagonists was at least 5 days (range 5–15 days) to ensure that there were no peptide residues. Kisspeptin antagonist p234 per se was not tested in vivo because p271 is in fact p234 with a penetratin tag to enhance passage across the blood-brain barrier, as has been described for use with peripheral administration.
Kisspeptin antagonists (50 μg/kg/h) were administered continuously for three hours via a catheter in the cephalic vein. Two hours after the start of the infusion, a single bolus of cKP10 (0.5 μg/kg) was administered intravenously. Blood samples were collected from the jugular vein by venipuncture at -40 min and 0 min before the antagonist infusion, and then every 30 min for two hours. After the administration of cKP10, blood samples were collected at 10, 20, 40, and 60 min (i.e., 130, 140, 160, and 180 min after the start of the antagonist infusion).
As a control, KP stimulation tests (without the administration of a kisspeptin antagonist) were performed in six dogs. Blood samples were collected from the jugular vein by venipuncture at -40 min and 0 min before, and then at 10, 20, 40, and 60 min after administration of cKP10 (0.5 μg/kg). Plasma LH concentrations were measured in all blood samples.
Plasma LH concentrations were measured with a heterologous radioimmunoassay validated for the dog, as described previously. The intra- and interassay CVs for values above 0.5 μg/l were 2.3 and 10.5%, respectively, and the limit of quantitation was 0.3 μg/l.
In both groups of dogs (experimental and control), the basal plasma LH concentration was calculated for each dog as the mean of the values at –40 and 0 min before cKP10 or antagonist administration. All LH values that exceeded the mean of all basal samples plus 3 SD were attributed to pulsatile secretion and were treated as outliers and excluded from statistical analysis. Log transformation of plasma LH concentrations was used because data were not normally distributed. A linear mixed model was used to analyze differences in plasma LH concentrations before and after KP10, with or without a kisspeptin antagonist (group effects: p271, p354, p356, and controls), with Bonferroni correction. P<0.05 was considered significant.

[3] = antagonist 50 μg/kg/h iv, cKP10 0.5 μg/kg iv

T1 sequence (Q969F8 whole entry): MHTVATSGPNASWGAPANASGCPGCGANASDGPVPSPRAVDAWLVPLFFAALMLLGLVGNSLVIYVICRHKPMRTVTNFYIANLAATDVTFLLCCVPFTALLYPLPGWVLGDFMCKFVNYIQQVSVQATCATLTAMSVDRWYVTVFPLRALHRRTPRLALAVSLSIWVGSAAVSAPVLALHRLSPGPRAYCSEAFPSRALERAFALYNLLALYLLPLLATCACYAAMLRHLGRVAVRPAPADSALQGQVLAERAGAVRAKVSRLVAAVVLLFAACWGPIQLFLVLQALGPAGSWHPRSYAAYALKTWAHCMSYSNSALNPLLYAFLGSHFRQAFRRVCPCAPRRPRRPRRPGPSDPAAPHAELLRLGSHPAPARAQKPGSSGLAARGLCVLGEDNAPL

intrinsic calcium response at highest concentration (human GPR54 [1]; 10^-5 M, P = 0.001): clear calcium response
pharmacological character on CHEM1-GPR54 cells (human GPR54 [1]; authors' conclusion): partial agonist
calcium response ratio versus control at highest concentration (human GPR54 [2]): smaller than the negative control
Substance: [dA]YNWNGFG[dW]KF-NH2 [p356]
binding and inhibition of kisspeptin action on inositol generation, potency range (kisspeptin receptor): nanomolar range
Median (and range) plasma LH, t = 30 (plasma LH concentration; 30 min of antagonist infusion 50 μg/kg/h iv): 4.1 (2.4–12.8) μg/L
Median (and range) plasma LH, t = 60 (plasma LH concentration; 60 min of antagonist infusion 50 μg/kg/h iv): 3.9 (2.2–7.7) μg/L
Median (and range) plasma LH, t = 90 (plasma LH concentration; 90 min of antagonist infusion 50 μg/kg/h iv): 4.5 (2.8–6.7) μg/L
Median (and range) plasma LH, t = 120 (plasma LH concentration; 120 min of antagonist infusion 50 μg/kg/h iv, before cKP10): 4.9 (2.1–10.4) μg/L
median maximum increment in plasma LH concentration after cKP10 during antagonist administration (plasma LH concentration; [3]): 8.1 µg/L
range of maximum increment in plasma LH concentration after cKP10 during antagonist administration (plasma LH concentration; [3]): 6.3 to 18.3 µg/L
Median (and range) plasma LH, t = 130 / t = 10* (plasma LH concentration; antagonist infusion 50 μg/kg/h iv, 10 min after cKP10 0.5 μg/kg iv): 12.8 (9.1–23.1) μg/L
Median (and range) plasma LH, t = 140 / t = 20* (plasma LH concentration; antagonist infusion 50 μg/kg/h iv, 20 min after cKP10 0.5 μg/kg iv): 8.7 (7.1–13.4) μg/L
Median (and range) plasma LH, t = 180 / t = 60* (plasma LH concentration; antagonist infusion 50 μg/kg/h iv, 60 min after cKP10 0.5 μg/kg iv): 4.7 (3.6–12.8) μg/L
Median (and range) plasma LH, Basal (plasma LH concentration; before antagonist infusion (mean of -40 and 0 min per dog)): 4.3 (2.8–6.0) μg/L
effect on basal plasma LH concentration (plasma LH concentration; continuous iv 50 μg/kg/h, anestrous bitches): did not cause significant alterations

Reference: PMC5484485, “In vitro and in vivo effects of kisspeptin antagonists p234, p271, p354, and p356 on GPR54 activation” (PLoS ONE, 2017)
